# Results: patent US9302999B2, “Substituted triazoles as herbicides” (E. I. DU PONT DE NEMOURS AND COMPANY, priority 2012, dated 2016)
# Assays:
# Assay type in all cases: in vivo
# [1] = tested on: bluegrass (annual bluegrass, Poa annua); assay: Test D pre-/postemergence: bluegrass
# Outline: (§1)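 Scores run from 0 (no effect) to 100 (complete control), assigned by visual comparison with controls after 14 to 21 days in a controlled environment. Both preemergence application to silt loam and postemergence application to 1- to 4-leaf plants were tested.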
# [2] = tested on: lambsquarters (Chenopodium album); assay: Test D pre-/postemergence: lambsquarters
# Outline: as §1
# [3] = tested on: ducksalad (Heteranthera limosa); assay: Test B flooded paddy: ducksalad; conditions: Flood; 250 g ai/ha; applied to paddy water at 2-leaf stage; visually evaluated after 13 to 15 days
# Outline: (§2)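 Greenhouse assay lasting 13 to 15 days. Treatment was into water flooding pots 3 cm deep, at the 2-leaf stage, with that level sustained afterwards. Scores compare treated with control plants visually, 100 denoting complete control and 0 no effect; a dash marks no test result.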
# rice (Oryza sativa) = assay: Test B flooded paddy: rice; conditions: Flood; 250 g ai/ha; applied to paddy water at 2-leaf stage; visually evaluated after 13 to 15 days
# Outline: as §2
# [4] = tested on: foxtail, green (green foxtail, Setaria viridis); assay: Test D pre-/postemergence: foxtail, green
# Outline: as §1
# [5] = tested on: oat, wild (wild oat, Avena fatua); assay: Test D pre-/postemergence: oat, wild
# Outline: as §1
# [6] = tested on: goosegrass (Eleusine indica); assay: Test C pre-/postemergence: goosegrass
# Outline: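 Visual injury scored 0–100 (100 = complete control) against untreated controls after 13–15 greenhouse days. Surfactant-containing solvent formulations applied either to soil after sowing (loam/sand) or over 1- to 4-leaf plants, 2–18 cm tall.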
# [7] = Postemergence, 31 g ai/ha, scale 0 to 100 (0 no effect, 100 complete control)
# [8] = Postemergence, 62 g ai/ha, scale 0 to 100 (0 no effect, 100 complete control)
# [9] = Postemergence, 125 g ai/ha, scale 0 to 100, 0 no effect, 100 complete control
# [10] = Postemergence, 250 g ai/ha, scale 0 to 100 (0 no effect, 100 complete control)
# [11] = Postemergence, 16 g ai/ha, scale 0 to 100
# [12] = Preemergence, 16 g ai/ha, scale 0 to 100 (0 no effect, 100 complete control)
# [13] = Preemergence, 31 g ai/ha, scale 0 to 100 (0 no effect, 100 complete control)
# [14] = Preemergence, 62 g ai/ha, scale 0 to 100
# [15] = Preemergence, 125 g ai/ha, scale 0 to 100
# [16] = Preemergence, 250 g ai/ha, scale 0 to 100
# [17] = Preemergence, 62 g ai/ha, scale of 0 to 100, 0 is no effect, 100 is complete control
# [18] = Preemergence, 125 g ai/ha, scale 0 to 100, 0 no effect, 100 complete control
# [19] = Preemergence, 250 g ai/ha, scale 0 to 100, 0 no effect, 100 complete control
# [20] = Preemergence, 31 g ai/ha, scale of 0 to 100, 0 is no effect, 100 is complete control
# [21] = Postemergence, 8 g ai/ha, scale 0 to 100
smiles,measurement,setting,value
CCOc1nn(-c2ccc(F)cc2)nc1Cc1ccnc(C(F)F)c1 [Compound 195],Plant response rating: Bluegrass,[1]; [7],20
same,Plant response rating: Bluegrass,[1]; [8],40
same,Plant response rating: Bluegrass,[1]; [9],60
same,Plant response rating: Bluegrass,[1]; [10],80
same,"Plant response rating, Bluegrass",[1]; [11],10
same,"Plant response rating, Bluegrass",[1]; [12],0
same,"Plant response rating, Bluegrass",[1]; [13],10
same,"Plant response rating, Bluegrass",[1]; [14],20
same,"Plant response rating, Bluegrass",[1]; [15],50
same,"Plant response rating, Bluegrass",[1]; [16],80
same,Plant response rating: Lambsquarters,[2]; [7],75
same,Plant response rating: Lambsquarters,[2]; [8],80
same,Plant response rating: Lambsquarters,[2]; [9],95
same,Plant response rating: Lambsquarters,[2]; [10],100
same,"Plant response rating, Lambsquarters",[2]; [11],60
same,"Plant response rating, Lambsquarters",[2]; [12],0
same,"Plant response rating, Lambsquarters",[2]; [13],0
same,"Plant response rating, Lambsquarters",[2]; [14],0
same,"Plant response rating, Lambsquarters",[2]; [15],30
same,"Plant response rating, Lambsquarters",[2]; [16],75
same,"Plant response rating, Ducksalad (0 to 100 scale, 0 is no effect, 100 is complete control)",[3],100
same,"Plant response rating, Rice (0 to 100 scale, 0 is no effect, 100 is complete control)",rice (Oryza sativa),60
same,"Plant response rating: Foxtail, Green",[4]; [7],50
same,"Plant response rating: Foxtail, Green",[4]; [8],75
same,"Plant response rating: Foxtail, Green",[4]; [9],100
same,"Plant response rating: Foxtail, Green",[4]; [10],100
same,"Plant response rating, Foxtail, Green",[4]; [11],30
same,"Plant response rating, Foxtail, Green",[4]; [12],15
same,"Plant response rating, Foxtail, Green",[4]; [13],90
same,"Plant response rating, Foxtail, Green",[4]; [14],100
same,"Plant response rating, Foxtail, Green",[4]; [15],100
same,"Plant response rating, Foxtail, Green",[4]; [16],100
same,"Plant response rating: Oat, Wild",[5]; [7],20
same,"Plant response rating: Oat, Wild",[5]; [8],25
same,"Plant response rating: Oat, Wild",[5]; [9],35
same,"Plant response rating: Oat, Wild",[5]; [10],45
same,"Plant response rating, Oat, Wild",[5]; [11],10
same,"Plant response rating, Oat, Wild",[5]; [12],0
same,"Plant response rating, Oat, Wild",[5]; [13],0
same,"Plant response rating, Oat, Wild",[5]; [14],0
same,"Plant response rating, Oat, Wild",[5]; [15],75
same,"Plant response rating, Oat, Wild",[5]; [16],75
same,"Plant response rating, Goosegrass",[6]; [7],50
same,"Plant response rating, Goosegrass",[6]; [8],50
same,"Plant response rating, Goosegrass",[6]; [9],60
same,"Plant response rating, Goosegrass",[6]; [10],80
same,"Plant response rating, Goosegrass","[6]; Preemergence, 31 g ai/ha, scale 0 (no effect) to 100 (complete control)",98
same,"Plant response rating, Goosegrass",[6]; [17],100
same,"Plant response rating, Goosegrass",[6]; [18],100
same,"Plant response rating, Goosegrass",[6]; [19],100
Cc1nn(-c2ccc(F)c(C(F)(F)F)c2)nc1Oc1ccnc(C(F)(F)F)c1 [Compound 147],Plant response rating: Bluegrass,[1]; [7],10
same,Plant response rating: Bluegrass,[1]; [8],55
same,Plant response rating: Bluegrass,[1]; [9],70
same,"Plant response rating, Bluegrass",[1]; [11],5
same,"Plant response rating, Bluegrass",[1]; [12],0
same,"Plant response rating, Bluegrass",[1]; [13],15
same,"Plant response rating, Bluegrass",[1]; [14],20
same,"Plant response rating, Bluegrass",[1]; [15],35
same,Plant response rating: Lambsquarters,[2]; [7],75
same,Plant response rating: Lambsquarters,[2]; [8],90
same,Plant response rating: Lambsquarters,[2]; [9],95
same,"Plant response rating, Lambsquarters",[2]; [11],75
same,"Plant response rating, Lambsquarters",[2]; [12],5
same,"Plant response rating, Lambsquarters",[2]; [13],50
same,"Plant response rating, Lambsquarters",[2]; [14],80
same,"Plant response rating, Lambsquarters",[2]; [15],85
same,"Plant response rating, Ducksalad (0 to 100 scale, 0 is no effect, 100 is complete control)",[3],40
same,"Plant response rating, Rice (0 to 100 scale, 0 is no effect, 100 is complete control)",rice (Oryza sativa),50
same,"Plant response rating: Foxtail, Green",[4]; [7],15
same,"Plant response rating: Foxtail, Green",[4]; [8],25
same,"Plant response rating: Foxtail, Green",[4]; [9],60
same,"Plant response rating, Foxtail, Green",[4]; [11],15
same,"Plant response rating, Foxtail, Green",[4]; [12],10
same,"Plant response rating, Foxtail, Green",[4]; [13],25
same,"Plant response rating, Foxtail, Green",[4]; [14],75
same,"Plant response rating, Foxtail, Green",[4]; [15],100
same,"Plant response rating: Oat, Wild",[5]; [7],15
same,"Plant response rating: Oat, Wild",[5]; [8],30
same,"Plant response rating: Oat, Wild",[5]; [9],35
same,"Plant response rating, Oat, Wild",[5]; [11],10
same,"Plant response rating, Oat, Wild",[5]; [12],5
same,"Plant response rating, Oat, Wild",[5]; [13],15
same,"Plant response rating, Oat, Wild",[5]; [14],35
same,"Plant response rating, Oat, Wild",[5]; [15],70
same,"Plant response rating, Goosegrass",[6]; [20],98
same,"Plant response rating, Goosegrass",[6]; [17],100
same,"Plant response rating, Goosegrass",[6]; [18],100
same,"Plant response rating, Goosegrass",[6]; [19],100
Cc1nn(-c2ccc(F)c(F)c2)nc1Oc1ccnc(C(F)(F)F)c1 [Compound 145],Plant response rating: Bluegrass,[1]; [7],20
same,Plant response rating: Bluegrass,[1]; [8],25
same,Plant response rating: Bluegrass,[1]; [9],40
same,"Plant response rating, Bluegrass",[1]; [21],0
same,"Plant response rating, Bluegrass",[1]; [11],0
same,Plant response rating: Lambsquarters,[2]; [7],90
same,Plant response rating: Lambsquarters,[2]; [8],100
same,Plant response rating: Lambsquarters,[2]; [9],100
same,"Plant response rating, Lambsquarters",[2]; [21],10
same,"Plant response rating, Lambsquarters",[2]; [11],25
same,"Plant response rating, Ducksalad (0 to 100 scale, 0 is no effect, 100 is complete control)",[3],60
same,"Plant response rating, Rice (0 to 100 scale, 0 is no effect, 100 is complete control)",rice (Oryza sativa),80
same,"Plant response rating: Foxtail, Green",[4]; [7],60
same,"Plant response rating: Foxtail, Green",[4]; [8],100
same,"Plant response rating: Foxtail, Green",[4]; [9],100
same,"Plant response rating, Foxtail, Green",[4]; [21],5
same,"Plant response rating, Foxtail, Green",[4]; [11],5
same,"Plant response rating: Oat, Wild",[5]; [7],20
same,"Plant response rating: Oat, Wild",[5]; [8],30
same,"Plant response rating: Oat, Wild",[5]; [9],35
same,"Plant response rating, Oat, Wild",[5]; [21],10
same,"Plant response rating, Oat, Wild",[5]; [11],10
same,"Plant response rating, Goosegrass",[6]; [7],25
same,"Plant response rating, Goosegrass",[6]; [8],35
same,"Plant response rating, Goosegrass",[6]; [9],70
same,"Plant response rating, Goosegrass","[6]; Postemergence, 250 g ai/ha, scale 0 to 100",80
same,"Plant response rating, Goosegrass",[6]; [20],98
same,"Plant response rating, Goosegrass",[6]; [17],100
same,"Plant response rating, Goosegrass",[6]; [18],100
same,"Plant response rating, Goosegrass",[6]; [19],100
Cc1nn(-c2ccnc(C(F)(F)F)c2)nc1Cc1ccnc(C(F)(F)F)c1 [Compound 137],Plant response rating: Bluegrass,[1]; [7],20
same,Plant response rating: Bluegrass,[1]; [8],40
same,Plant response rating: Bluegrass,[1]; [9],80
same,Plant response rating: Bluegrass,[1]; [10],90
same,"Plant response rating, Bluegrass",[1]; [11],5
same,Plant response rating: Lambsquarters,[2]; [7],75
same,Plant response rating: Lambsquarters,[2]; [8],80
same,Plant response rating: Lambsquarters,[2]; [9],95
same,Plant response rating: Lambsquarters,[2]; [10],95
same,"Plant response rating, Lambsquarters",[2]; [11],40
same,"Plant response rating, Ducksalad (0 to 100 scale, 0 is no effect, 100 is complete control)",[3],50
same,"Plant response rating, Rice (0 to 100 scale, 0 is no effect, 100 is complete control)",rice (Oryza sativa),40
same,"Plant response rating: Foxtail, Green",[4]; [7],50
same,"Plant response rating: Foxtail, Green",[4]; [8],70
same,"Plant response rating: Foxtail, Green",[4]; [9],80
same,"Plant response rating: Foxtail, Green",[4]; [10],95
same,"Plant response rating, Foxtail, Green",[4]; [11],40
same,"Plant response rating: Oat, Wild",[5]; [7],10
same,"Plant response rating: Oat, Wild",[5]; [8],20
same,"Plant response rating: Oat, Wild",[5]; [9],35
same,"Plant response rating: Oat, Wild",[5]; [10],50
same,"Plant response rating, Oat, Wild",[5]; [11],0
same,"Plant response rating, Goosegrass",[6]; [7],20
same,"Plant response rating, Goosegrass",[6]; [8],25
same,"Plant response rating, Goosegrass",[6]; [9],65
